Results as given in patent US10081631B2, “2-(1H-indazol-3-yl)-1H-imidazo[4,5-C]pyridine and therapeutic uses thereof” (Samumed, LLC, priority 2014, dated 2018).

Key:
Format in all cases: cell-based
[1] = tested on: Wnt activity (Sp5-Luc reporter, SW480 colon carcinoma cells); experiment: Screening assay for Wnt activity: Sp5-Luc reporter gene assay in SW480 cells; conditions: Homo sapiens, 42 h incubation, luminescence
Summary of the method: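 IC50 values come from variable-slope four-parameter fits of luciferase signal normalized to DMSO wells. Stable Sp5-Luc reporter SW480 colon carcinoma cells were exposed to compounds in a 3-fold dilution series (source plates from 10 mM stock) for forty-two hours at 37 °C.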

ARPE-19 cells = experiment: Transdifferentiation of ARPE-19 cells into eye neuronal cells (PAX6 staining); conditions: Homo sapiens, 40 hours, PAX6 antibody staining
Procedure: The above synthesized compounds were screened using ARPE-19 cells [a spontaneously arising retinal pigment epithelia (RPE) cell line] to determine their ability to transdifferentiate ARPE-19 into eye neuronal cells [photoreceptors].
ARPE-19 cells are cultured in standard culture medium containing Dulbecco's Modified Eagle's Medium and Ham's F12 Nutrient Mixture (DMEM/F12) mix (1:1)+GlutaMax with 1% penicillin-Streptomycin and 10% FBS (Fetal Bovine Serum). Cells are incubated at 37° C. with 5% CO2. Cells are trypsinized and plated onto 384-well pre-spotted plate at a density of 3000 cells/well in 50 uL of media. Plating media:DMEM/F12 (1:1)+3% charcoal filtered-FBS+GlutaMax+1% pen/Strep. Cells are incubated at 37° C. with 5% CO2. At 40 hours, cells were fixed for 15 min with 10% Buffered Formalin. Cells were then washed 3 times with PBS for 5 min each, permeablize using 0.3% Triton X-100 in 1×PBS for 30 min, block for 1 h with 2% BSA in 1×PBS with 0.1% Triton X-100. The primary antibody (1:100 PAX6 Santa Cruz Biotech; sc-81649) was diluted and 10 μL/well was added to the cells. The cells were incubated overnight at 4° C. The plates were washed 3× with PBS before applying the secondary antibody (goat Anti-mouse 488), shake for 1 h in complete darkness, aspirate secondary, add 10 μL of DAPI (diamidino-2-phenylindole) (1 μg/mL), shake for 10 min. Wash 3× in PBS and scan on Thermo Fisher Scientific cell-Insight CX5. Readings were normalized to DMSO only treated cells, and normalized activities were utilized for EC50 calculations using the dose-response log (activator) vs. response-variable slope (four parameters) nonlinear regression feature available in GraphPad Prism 5.0 or 6.0.

[2] = tested on: primary human fibroblasts derived from IPF patients (LL29 cells); experiment: Inhibition of fibrosis: TGF-β1-treated primary human fibroblasts from IPF patients (LL29), αSMA staining; conditions: Fibroblast, 96 h, TGF-β1 20 ng/mL, 4 days, % αSMA-positive cells
Summary of the method: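 […] (0.1% DMSO) on LL29 cells in F12 with 1% FBS, with TGF-β1 (20 ng/mL) added 1 h after plating; 4 days at 37 °C. SYTOX-positive dead cells were excluded and the % αSMA-positive cells was imaged, normalized to TGF-β1/DMSO wells, triplicates; EC50 by non-linear regression.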

Row | SMILES | IC50 [1] | EC50 (ARPE-19 cells) | EC50 [2]
1 | CN1CCN(c2nccc3[nH]c(-c4n[nH]c5ccc(-c6cnn(C7CC7)c6)cc45)nc23)CC1 [Compound 2284, 2-(5-(1-Cyclopropyl-1H-pyrazol-4-yl)-1H-indazol-3-yl)-4-(4-methylpiperazin-1-yl)-1H-imidazo[4,5-c]pyridine] | 90 nM | 6 nM | –
2 | Cn1cc(-c2ccc3[nH]nc(-c4nc5c(N6CCOCC6)nccc5[nH]4)c3c2)cn1 [Compound 2280, 4-(2-(5-(1-Methyl-1H-pyrazol-4-yl)-1H-indazol-3-yl)-1H-imidazo[4,5-c]pyridin-4-yl)morpholine] | 15 nM | 2 nM | –
3 | CN1CCN(c2nccc3[nH]c(-c4n[nH]c5ccc(-c6cnn(C)c6)cc45)nc23)CC1 [Compound 1916, 2-(5-(1-Methyl-1H-pyrazol-4-yl)-1H-indazol-3-yl)-4-(4-methylpiperazin-1-yl)-1H-imidazo[4,5-c]pyridine] | 65 nM | 3.7 nM | –
4 | Fc1cncc(-c2ccc3[nH]nc(-c4nc5c(N6CCOCC6)nccc5[nH]4)c3c2)c1 [Compound 2275, 4-(2-(5-(5-Fluoropyridin-3-yl)-1H-indazol-3-yl)-1H-imidazo[4,5-c]pyridin-4-yl)morpholine] | 80 nM | 43.4 nM | –
5 | CC(C)CC(=O)Nc1cncc(-c2ccc3[nH]nc(-c4nc5c(-c6cccc(F)c6)nccc5[nH]4)c3c2)c1 [Compound 2, N-(5-(3-(4-(3-Fluorophenyl)-1H-imidazo[4,5-c]pyridin-2-yl)-1H-indazol-5-yl)pyridin-3-yl)-3-methylbutanamide] | 5 nM | – | 9 nM
